The source of these data is PubChem BioAssay (NCI).

Each structure is given as a SMILES string.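 96-well plates; 48 h exposure; 5 concentrations. Endpoints by linear interpolation between flanking doses. Not reached: highest tested concentration assigned. GI50 is the concentration that inhibits growth by half. TGI denotes the concentration required for complete inhibition of growth.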 Where only a bound is given, the exact number is not on record here.

Test systems include DU-145 prostate; NCI-H23 lung; TK-10 renal; NCI-H460 lung; HS 578T breast; RPMI-8226 leukemia; IGROV1 ovarian; SR leukemia.
Holding throughout (experiment): DTP human tumour cell line panel, 48 h

What is called GI50 is the concentration giving 50% growth inhibition. The term TGI denotes the concentration giving total growth inhibition. With `C[As](C)Sc1ccnc(S[As](C)C)n1`, the GI50 is 5.98 µM in the experiment on DU-145 prostate; 6790 nM in the experiment with NCI-H23 lung; 2640 nM in the experiment on TK-10 renal; 19100 nM with NCI-H460 lung; 1990 nM in the experiment on HS 578T breast; 1120 nM in the experiment on RPMI-8226 leukemia. Also, the GI50 with IGROV1 ovarian is 4730 nM. Also, the total growth inhibition concentration (TGI) with DU-145 prostate is over 39.7 µM; in the experiment with NCI-H23 lung, over 32 µM; in the experiment on TK-10 renal, 14.3 µM; in the experiment with NCI-H460 lung it was over 58.6 µM; in the experiment with HS 578T breast, 17.7 µM; in the experiment with RPMI-8226 leukemia it was 4.61 µM. In the experiment with IGROV1 ovarian, this molecule came in with a TGI of over 40.8 µM.

In the case of `O=C(O)c1cc(N/C=C2\C(=O)c3ccccc3OC2O)ccc1O` (configuration not stated), the GI50 with DU-145 prostate is 18.9 µg/mL; in the experiment on NCI-H23 lung, 20.4 µg/mL; with TK-10 renal, 39.2 µg/mL; in the experiment on SR leukemia, 4.77 µg/mL; in the experiment on NCI-H460 lung, 34 µg/mL; in the experiment with HS 578T breast, 19.6 µg/mL. Further, the GI50 with RPMI-8226 leukemia is 2.24 µg/mL; in the experiment on IGROV1 ovarian, 20.6 µg/mL. Further, the total growth inhibition concentration (TGI) in the experiment with DU-145 prostate is 59 µg/mL; with NCI-H23 lung it was 59.6 µg/mL; with TK-10 renal it was 118 µg/mL; in the experiment with SR leukemia it was 36.9 µg/mL; with NCI-H460 lung it was 81.3 µg/mL; in the experiment on HS 578T breast it was 140 µg/mL. In addition, the concentration for total growth inhibition (TGI) in the experiment on RPMI-8226 leukemia is 7.82 µg/mL; in the experiment on IGROV1 ovarian it was 61.8 µg/mL.

For `COc1cc(C(=O)NC2CCN(C)CC2)ccc1Nc1ncc2c(n1)N(C1CCCC1)CC(F)(F)C(=O)N2C`, the 50% growth inhibitory concentration (GI50) with DU-145 prostate is under 0.01 µM; in the experiment on NCI-H23 lung, under 11.4 nM; in the experiment on TK-10 renal it was 1390 nM; in the experiment with SR leukemia it was under 10 nM; in the experiment with NCI-H460 lung, under 15.2 nM; in the experiment with HS 578T breast, 58.5 nM. The concentration for total growth inhibition (TGI) turned out to be 0.0621 µM in the experiment with DU-145 prostate; 2.98 µM with NCI-H23 lung; 14.4 µM with TK-10 renal; 0.448 µM in the experiment with SR leukemia; 11.6 µM with NCI-H460 lung; 1.53 µM in the experiment on HS 578T breast. The figures for the TGI in the experiment with RPMI-8226 leukemia and with IGROV1 ovarian were 8.33 µM and 16.8 µM, respectively.

For the molecule `Fc1ccc(CNc2c3ccccc3nc3ccccc23)cc1`, the GI50 with DU-145 prostate was 3.18 µM; with NCI-H23 lung, 2360 nM; with TK-10 renal, 2830 nM; in the experiment with SR leukemia, 2200 nM; in the experiment on NCI-H460 lung, 2300 nM; in the experiment with HS 578T breast, 3050 nM. The values for the GI50 with RPMI-8226 leukemia and in the experiment on IGROV1 ovarian were 2030 nM and 2300 nM, respectively. Also, the TGI in the experiment with DU-145 prostate was determined as 11.3 µM; with NCI-H23 lung, 8.57 µM; with TK-10 renal, 10.6 µM; in the experiment on SR leukemia, 7.75 µM; in the experiment on NCI-H460 lung, 6.69 µM; in the experiment with HS 578T breast it was 10.7 µM. Further, the TGI with RPMI-8226 leukemia stood at 5.79 µM; in the experiment with IGROV1 ovarian, 6.02 µM.

`COc1ccc(Nc2c3c4c(cccc4[nH]c2=O)C(=O)c2ccccc2-3)cc1`: the GI50 in the experiment on DU-145 prostate was under 0.0181 µM; in the experiment on NCI-H23 lung it was under 18.5 nM; with TK-10 renal, under 22.5 nM; in the experiment with NCI-H460 lung, under 10 nM; in the experiment on HS 578T breast, 23.8 nM; with IGROV1 ovarian, 36.5 nM. In addition, the concentration for total growth inhibition (TGI) in the experiment on DU-145 prostate was 0.0467 µM; in the experiment on NCI-H23 lung it was over 38.9 µM; in the experiment on TK-10 renal, 21.3 µM; in the experiment on NCI-H460 lung, 10.1 µM; with HS 578T breast, over 45.9 µM; in the experiment with IGROV1 ovarian it was over 100 µM.

For the molecule `CN(CCCCCl)P(=O)(OCc1ccc([N+](=O)[O-])o1)C(F)(F)c1ccc(CC(=O)N[C@@H](CC(=O)O)C(=O)N[C@@H](Cc2ccc(C(F)(F)P(=O)(OCc3ccc([N+](=O)[O-])o3)N(C)CCCCCl)cc2)C(N)=O)cc1` (some centres not stated), the GI50 with DU-145 prostate is 85.8 µM; with NCI-H23 lung, 51700 nM; with TK-10 renal, 76100 nM; in the experiment on SR leukemia, 22900 nM; in the experiment with NCI-H460 lung it was over 100000 nM; in the experiment on HS 578T breast, 37600 nM. The GI50 in the experiment on RPMI-8226 leukemia was 25500 nM; in the experiment with IGROV1 ovarian it was 45700 nM. Further, the TGI with DU-145 prostate was over 100 µM; in the experiment with NCI-H23 lung, over 100 µM; in the experiment on TK-10 renal, over 100 µM; with SR leukemia it was 49.9 µM; with NCI-H460 lung, over 100 µM; in the experiment with HS 578T breast, over 100 µM. For the same molecule, the TGI was 71.9 µM in the experiment with RPMI-8226 leukemia and over 100 µM in the experiment with IGROV1 ovarian.

On to `O=C(c1ccccc1)c1ccc(Cl)c([N+](=O)[O-])c1`, for which the GI50 with DU-145 prostate was 3.69 µM; in the experiment with NCI-H23 lung, 16200 nM; with SR leukemia, 3040 nM; with NCI-H460 lung it was 18500 nM; in the experiment on HS 578T breast it was 17500 nM; in the experiment with RPMI-8226 leukemia, 3640 nM. Moreover, the GI50 in the experiment with IGROV1 ovarian was 7920 nM. Besides, the TGI in the experiment on DU-145 prostate amounted to 11.7 µM; in the experiment on NCI-H23 lung it was 32.8 µM; in the experiment on SR leukemia, 9.66 µM; in the experiment with NCI-H460 lung, 39.3 µM; with HS 578T breast, 95.3 µM; in the experiment with RPMI-8226 leukemia it was 21.9 µM. The total growth inhibition concentration (TGI) with IGROV1 ovarian came to 23.9 µM.

Consider `COc1ccccc1CNCCCN1C(=O)c2ccc3c4c(ccc(c24)C1=O)C(=O)N(CCCNCCCCNCCCCN)C3=O`, for which the GI50 is 1.62 µM in the experiment on DU-145 prostate; 2430 nM with NCI-H23 lung; 3710 nM in the experiment with TK-10 renal; 1500 nM in the experiment on SR leukemia; 2270 nM in the experiment on NCI-H460 lung; 2830 nM in the experiment with HS 578T breast. The GI50 is 1830 nM with RPMI-8226 leukemia and 2800 nM in the experiment with IGROV1 ovarian. Also, the TGI was determined as 3.95 µM with DU-145 prostate; 7.59 µM in the experiment with NCI-H23 lung; 51.7 µM in the experiment with TK-10 renal; 17.7 µM in the experiment on SR leukemia; 5.8 µM with NCI-H460 lung; 14.4 µM with HS 578T breast. The figures for the total growth inhibition concentration (TGI) in the experiment on RPMI-8226 leukemia and with IGROV1 ovarian were 9.62 µM and 9.17 µM, respectively.

For the molecule `O=C(/C=C/c1ccccn1)c1ccccc1O`, the GI50 in the experiment with DU-145 prostate is 2.31 µM; in the experiment with NCI-H23 lung it was 2350 nM; in the experiment on TK-10 renal, 2280 nM; in the experiment with SR leukemia, 1700 nM; with NCI-H460 lung, 2280 nM; with HS 578T breast, 2360 nM. The GI50 in the experiment on IGROV1 ovarian is 1760 nM. Further, the concentration for total growth inhibition (TGI) in the experiment on DU-145 prostate turned out to be 5.69 µM; in the experiment with NCI-H23 lung it was 8.76 µM; with TK-10 renal, 4.95 µM; with SR leukemia it was 4.99 µM; with NCI-H460 lung, 5.17 µM; in the experiment on HS 578T breast, 7.27 µM. In the experiment on IGROV1 ovarian, this molecule had a TGI of 3.36 µM.
